Patent publication US8841321B2, “Quinoline derivatives as antibacterial agents” (Janssen Pharmaceutica NV, priority 2005, dated 2014)
Values after ≈ are worked out from the molar mass of the structure shown.

What was measured:
Assay in all cases: Microtitre plate assay, IC90 determination
Type in all cases: cell-based
[1] = tested on: STA 29213 (Staphylococcus aureus (ATCC29213)); settings: Staphylococcus aureus (ATCC29213)
How it was run: (§1)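 Growth-inhibition endpoint: resazurin added 3 h after inoculation, plates incubated overnight, fluorescence at 530/590 nm after 24 h at 37 °C. Inocula of roughly 10–60 CFU per well in Mueller-Hinton medium; compounds titrated five-fold. IC90 reported as μg/ml.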

[2] = tested on: SPN 6305 (Streptococcus pneumoniae (ATCC6305)); settings: Streptococcus pneumoniae (ATCC6305)
How it was run: as §1

[3] = tested on: EFA 29212 (Enterococcus faecalis (ATCC29212)); settings: Enterococcus faecalis (ATCC29212)
[4] = tested on: SPY 8668 (Streptococcus pyogens (ATCC8668)); settings: Streptococcus pyogens (ATCC8668)
[5] = tested on: PAE 27853 (Pseudomonas aeruginosa (ATCC27853)); settings: Pseudomonas aeruginosa (ATCC27853)
[6] = tested on: STA RMETH (methicilline resistant Staphylococcus aureus (MRSA), a clinical isolate from the University of Antwerp)

IC90 (μg/ml) EFA 29212 [3] | IC90 (μg/ml) SPY 8668 [4] | IC90 (μg/ml) PAE 27853 [5] | SMILES | IC90 (μg/ml) STA 29213 [1] | IC90 (μg/ml) SPN 6305 [2] | IC90 (μg/ml) STA RMETH [6]
– | 10.46 µg/mL (≈ 15.9 µM) | – | COc1nc2ccc(Br)cc2cc1C(c1ccccc1)C(O)(CCCCN(C)Cc1ccccc1)c1ccc2ccccc2c1 (racemic) [Compound 76] | – | 2.34 µg/mL (≈ 3.55 µM) | –
10.11 µg/mL (≈ 15.9 µM) | 2.02 µg/mL (≈ 3.17 µM) | 2.02 µg/mL (≈ 3.17 µM) | COc1nc2ccc(Br)cc2cc1C(c1ccccc1)C(O)(CCCCN1CCC(C)CC1)c1ccc2ccccc2c1 (racemic) [Compound 102] | 10.11 µg/mL (≈ 15.9 µM) | 1.8 µg/mL (≈ 2.82 µM) | –
9 µg/mL (≈ 15.9 µM) | 9 µg/mL (≈ 15.9 µM) | 3.58 µg/mL (≈ 6.31 µM) | COc1nc2ccc(Br)cc2cc1C(c1ccccc1)C(O)(CCCCN1CCCCC1)CCC(C)C (single isomer, unassigned) [Compound 124] | 1.79 µg/mL (≈ 3.15 µM) | 2.26 µg/mL (≈ 3.98 µM) | –
– | – | – | COc1nc2ccc(Br)cc2cc1C(c1ccccc1)C(O)(CCCCN1CCNCC1)CCc1ccccc1 (single isomer, unassigned) [Compound 135] | 1.91 µg/mL (≈ 3.17 µM) | 2.4 µg/mL (≈ 3.98 µM) | 12.02 µg/mL (≈ 19.9 µM)
– | – | – | COc1nc2ccc(Br)cc2cc1C(c1ccccc1)C(O)(CCCCN1CCNCC1)CCc1ccccc1 (single isomer, unassigned) [Compound 136] | 1.91 µg/mL (≈ 3.17 µM) | 2.4 µg/mL (≈ 3.98 µM) | 5.37 µg/mL (≈ 8.91 µM)
– | – | – | COc1nc2ccc(Br)cc2cc1C(c1ccccc1)C(O)(CCCCN1CCC(N(C)C)CC1)CCc1ccccc1 (single isomer, unassigned) [Compound 139] | 4.56 µg/mL (≈ 7.07 µM) | 5.12 µg/mL (≈ 7.94 µM) | 12.86 µg/mL (≈ 19.9 µM)
– | – | – | COc1nc2ccc(Br)cc2cc1C(c1ccccc1)C(O)(CCCCN1CCC(N(C)C)CC1)CCc1ccccc1 (single isomer, unassigned) [Compound 140] | 4.56 µg/mL (≈ 7.07 µM) | 4.56 µg/mL (≈ 7.07 µM) | 2.57 µg/mL (≈ 3.99 µM)
– | – | – | COc1nc2ccc(Br)cc2cc1C(c1ccccc1)C(O)(CCCCN1CCN(C)CC1)CCc1cccc2ccccc12 (single isomer, unassigned) [Compound 142] | 2.65 µg/mL (≈ 3.97 µM) | 2.37 µg/mL (≈ 3.55 µM) | 2.37 µg/mL (≈ 3.55 µM)
1.82 µg/mL (≈ 3.16 µM) | 1.82 µg/mL (≈ 3.16 µM) | 1.82 µg/mL (≈ 3.16 µM) | COc1nc2ccc(Br)cc2cc1C(c1ccccc1)C(O)(CCCCN(C)C)CCCc1ccccc1 (single isomer, unassigned) [Compound 144] | 9.12 µg/mL (≈ 15.8 µM) | 2.29 µg/mL (≈ 3.98 µM) | –
9.12 µg/mL (≈ 15.8 µM) | 5.13 µg/mL (≈ 8.91 µM) | 9.12 µg/mL (≈ 15.8 µM) | COc1nc2ccc(Br)cc2cc1C(c1ccccc1)C(O)(CCCCN(C)C)CCCc1ccccc1 (single isomer, unassigned) [Compound 145] | 5.76 µg/mL (≈ 10 µM) | 2.29 µg/mL (≈ 3.98 µM) | –
38.3 µg/mL (≈ 79.4 µM) | 38.3 µg/mL (≈ 79.4 µM) | 38.3 µg/mL (≈ 79.4 µM) | COc1nc2ccc(C)cc2cc1C(c1ccccc1)C(O)(CCCCCN(C)C)c1ccccc1 (single isomer, unassigned) [Compound 152] | 7.7 µg/mL (≈ 16 µM) | 1.5 µg/mL (≈ 3.11 µM) | –
– | 8.68 µg/mL (≈ 15.9 µM) | 8.68 µg/mL (≈ 15.9 µM) | COc1nc2ccc(Br)cc2cc1C(c1ccccc1)C(O)(CCCCCN(C)C)c1ccccc1 (single isomer, unassigned) [Compound 154] | 1.75 µg/mL (≈ 3.2 µM) | 1.75 µg/mL (≈ 3.2 µM) | –

SMILES | IC90 (μg/ml) EFA 29212 [3] | IC90 (μg/ml) SPY 8668 [4] | IC90 (μg/ml) PAE 27853 [5] | IC90 (μg/ml) STA 29213 [1] | IC90 (μg/ml) SPN 6305 [2] | IC90 (μg/ml) STA RMETH [6]
CNCCCCC(O)(c1ccc2ccccc2c1)C(c1ccccc1)c1cc2cc(Br)ccc2nc1OC (racemic) [Compound 74] | 9.03 µg/mL (≈ 15.9 µM) | 9.03 µg/mL (≈ 15.9 µM) | 10.13 µg/mL (≈ 17.8 µM) | 11.36 µg/mL (≈ 19.9 µM) | 0.9 µg/mL (≈ 1.58 µM) | –
COc1nc2c(C)c(Br)ccc2cc1C(c1ccccc1)C(O)(CCCCN(C)C)c1ccc2ccccc2c1 (racemic) [Compound 81] | 1.89 µg/mL (≈ 3.16 µM) | 1.89 µg/mL (≈ 3.16 µM) | 9.47 µg/mL (≈ 15.8 µM) | 9.47 µg/mL (≈ 15.8 µM) | 4.75 µg/mL (≈ 7.95 µM) | –
COc1nc2ccc(Br)cc2cc1C(c1ccccc1)C(O)(CCCCN(C)C(C)C)c1ccccc1 (single isomer, unassigned) [Compound 89] | 11.2 µg/mL (≈ 19.9 µM) | 8.9 µg/mL (≈ 15.8 µM) | 11.2 µg/mL (≈ 19.9 µM) | 11.2 µg/mL (≈ 19.9 µM) | 2.24 µg/mL (≈ 3.99 µM) | –
